Tests used:
Assay type in all cases: in vivo
[1] = system: zymosan-stimulated air pouch, cells infiltrated per pouch; assay: Murine air pouch model, 2 hour zymosan; settings: Table 7 (FIG. 1); female Balb/c mice; PO BID from day 5; pouch lavage 2 hours after 1% zymosan on day 7; 30 mpk COX-2 Inhibitor, 300mpk LTB4 RA, alone or combined
Method: In the present invention, the anti-inflammatory effects of COX-2 inhibitors and LTB4 inhibitors, both alone and together, can be evaluated using the mouse air pouch model (see Example 1 and FIG. 1). Following the addition of a COX-2 inhibitor, or an LTB4 inhibitor, or both, to a zymosan-stimulated air pouch, results may be reported as the number of cells that have infiltrated per pouch as an indicator of inflammation.
Female Balb/c mice age 8-12 weeks are injected with approximately 5 milliliters of air subcutaneous using a 10 milliliter syringe with a 27-gauge needle and a 0.2 micron acrodisc filter. The animals are anesthetized with CO2/O2 mix, and then the air injection is made subcutaneously in the intrascapular region of the mouse. Animals' pouches are reinflated every 2-3 days with approximately 2-3 milliliters of air, same as above. Dosing of each compound, including Vehicle (0.5% Methylcellulose+0.025% Tween 80) or a COX-2 inhibitor (compound C-1, 15 mpk, BID), or an LTB4 receptor antagonist (compound L-2, 150 mpk, BID), or the COX-2 inhibitor combined with the LTB4 receptor antagonist (compound C-1, 30 mpk+compound L-2 150 mpk BID), starting on day 5 at 6 am. Compounds are given orally (PO) and dosed BID in a volume of 0.2 milliliters per/dose. […] Total cells/mouse is calculated using a coulter counter. […]

[2] = system: collagen-induced arthritis in male DBA/1 mice; assay: Collagen-induced arthritis in mice (incidence, severity, weight); settings: for Weight: in g (unit assumed); for % Incidence: individual inhibitors in the comparison experiment
Method: Arthritis is induced in 8-12 week old male DBA/1 mice by injection of 50 micrograms of chick type II collagen (CII) in complete Freunds adjuvant (Sigma) on day 0 at the base of the tail as described in J. Stuart, Annual Rev. Immunol., 2, 199 (1984). Compounds are prepared as a suspension in 0.5% methylcelluose (Sigma, St. Louis, Mo.), 0.025% Tween 20 (Sigma). The COX-2 inhibitors (Example 1 and 2) and LTB4 receptor antagonist (Example 3) are administered alone or a COX-2 inhibitor and an LTB4 receptor antagonist in combination. The compounds are administered in non-arthritic animals by gavage in a volume of 0.1 mL beginning on day 20 post collagen injection and continuing daily until final evaluation on day 55. Animals are boosted on day 21 with 50 micrograms of collagen (CII) in incomplete Freunds adjuvant. The animals are subsequently evaluated several times each week for incidence and severity of arthritis until day 56. Any animal with paw redness or swelling is counted as arthritic. Scoring of severity is carried out using a score of 0-3 for each paw (maximal score of 12/mouse) as described in P. Wooley, et al., Trans. Proc., 15, 180 (1983). The animals are measured for incidence of arthritis and severity in the animals where arthritis is observed. The incidence of arthritis is determined at a gross level by observing the swelling or redness in the paw or digits. Severity is measured with the following guidelines. Briefly, animals displaying four normal paws, i.e., no redness or swelling are scored 0. Any redness or swelling of digits or the paw is scored as 1. Gross swelling of the whole paw or deformity is scored as 2. Ankylosis of joints is scored as 3.
Eight- to twelve-week old male DBA/1 mice were injected at the base of the tail with 50 micrograms of chick type II collagen in CFA. 21 days later, animals were boosted with 50 micrograms chick type II collagen in IFA. […] On day 56 animals were evaluated for arthritis. Any animals displaying inflammation in the paw were included as positive for incidence. In addition, paw swelling was graded on a standard scale of 0-3/paw (total score of 12/animal).

[3] = system: collagen-induced arthritis in male DBA/1 mice; assay: as above; settings: Table 4 (FIG. 2); evaluated day 56; treated from day 21; compound C-1 15 mpk bid, compound L-2 150 mpk bid, alone or combined
[4] = Table 4 (FIG. 2), C-1 15 mpk bid, L-2 150 mpk bid, alone or combined
[5] = Table 4 (FIG. 2), day 56, paw swelling graded 0-3/paw, total score of 12/animal, C-1 15 mpk bid, L-2 150 mpk bid, alone or combined
[6] = Table 6 (FIG. 4), doses not given
[7] = Table 6 (FIG. 4), score 0-3/paw, total 12/animal, doses not given

Compound: O=C(O)C1(c2ccc3c(c2)OCC(Cc2ccc(-c4ccccc4)cc2)[C@H]3O)CCCC1 (stereo partly drawn) [LTB4 ra, 1-[3-([1,1′-biphenyl]-4-ylmethyl)-3,4-dihydro-4-hydroxy-2H-1-benzopyran-7-yl]-cyclopentanecarboxylic acid, (3S-trans)]
- Total Cells/Mouse [1]: 38900000
- Weight [2, 4]: 26.77
- Severity [2, 5]: 2.7
- Weight [2, 6]: 26.77
- % Incidence [2, 6]: 90%
- Severity [2, 7]: 2.7
- % Incidence [3]: 90%

Compound: Cc1ccc(-c2cc(C(F)(F)F)nn2-c2ccc(S(N)(=O)=O)cc2)cc1 [COX-2 Inhib., celecoxib]
- Total Cells/Mouse [1]: 40600000
- Weight [2, 4]: 24.66
- Severity [2, 5]: 5.1
- Weight [2, 6]: 24.66
- % Incidence [2, 6]: 100%
- Severity [2, 7]: 5.1
- % Incidence [3]: 100%
